Test results taken from US8697372B2, “Method for determining the binding of a given compound to a membrane receptor” (CIS Bio International, priority 2009, dated 2014).

Molecular target: T1, Delta Opioid receptor implicated in the heterodimer with Dopamine D2 (Homo sapiens, UniProt P41143)
T1 construct: membrane-addressing signal peptide T8 (printed '18') (N); expressed in transfected cells; host or cells: HEK293T/17 cells, transient co-transfection
Assay type: binding
Conditions: 3 nM red antagonist of the opioid receptor, D2 receptor labeled with HALO-Lumi4Tb, HEK293T cells, FIG. 10

T1 sequence (P41143 whole entry): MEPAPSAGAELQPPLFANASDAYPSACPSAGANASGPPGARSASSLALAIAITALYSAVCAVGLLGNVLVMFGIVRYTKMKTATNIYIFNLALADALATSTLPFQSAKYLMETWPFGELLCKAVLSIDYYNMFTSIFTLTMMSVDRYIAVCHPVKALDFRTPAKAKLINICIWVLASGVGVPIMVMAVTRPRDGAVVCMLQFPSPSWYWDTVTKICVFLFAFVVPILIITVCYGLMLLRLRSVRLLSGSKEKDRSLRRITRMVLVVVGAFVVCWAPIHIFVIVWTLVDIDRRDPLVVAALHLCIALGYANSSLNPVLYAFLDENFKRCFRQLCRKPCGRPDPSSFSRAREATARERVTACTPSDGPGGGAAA
T1 sequence (P14416 1-414 isoform P14416-2 partner): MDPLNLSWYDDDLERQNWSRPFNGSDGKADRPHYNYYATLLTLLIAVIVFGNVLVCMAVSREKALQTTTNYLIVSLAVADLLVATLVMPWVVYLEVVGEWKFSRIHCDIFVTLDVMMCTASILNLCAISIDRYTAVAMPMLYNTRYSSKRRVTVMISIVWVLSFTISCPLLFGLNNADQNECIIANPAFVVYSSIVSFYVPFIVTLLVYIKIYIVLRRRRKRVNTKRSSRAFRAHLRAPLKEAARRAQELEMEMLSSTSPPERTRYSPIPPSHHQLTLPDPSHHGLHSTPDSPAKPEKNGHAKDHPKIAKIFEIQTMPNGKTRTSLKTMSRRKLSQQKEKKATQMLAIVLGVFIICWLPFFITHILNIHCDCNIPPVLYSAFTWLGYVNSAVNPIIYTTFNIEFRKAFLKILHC

Row | Structure (SMILES) | Competition with the fluorescent reference ligand and binding to the heterodimers
1 | C=CCN1C[C@H](C)N([C@@H](c2ccccc2)c2ccc(C(=O)N(CC)CC)cc2)C[C@H]1C [SNC-162] | compete with the fluorescent reference ligand and bind to the heterodimers
2 | Oc1ccc2c3c1O[C@H]1c4[nH]c5ccccc5c4C[C@@]4(O)[C@@H](C2)N(CC2CC2)CC[C@]314 [Naltrindole] | compete with the fluorescent reference ligand and bind to the heterodimers
